The values that follow come from ChEMBL document CHEMBL2016457, “Discovery of potent and orally bioavailable 17β-hydroxysteroid dehydrogenase type 3 inhibitors” (Bioorg Med Chem, 2012).

Active and inactive are the calls of the source. How the calls were made is not given here.

Test [1] deals with T1, 17-beta-hydroxysteroid dehydrogenase type 3 (Homo sapiens, UniProt P37058).
T1 sequence (P37058 whole entry): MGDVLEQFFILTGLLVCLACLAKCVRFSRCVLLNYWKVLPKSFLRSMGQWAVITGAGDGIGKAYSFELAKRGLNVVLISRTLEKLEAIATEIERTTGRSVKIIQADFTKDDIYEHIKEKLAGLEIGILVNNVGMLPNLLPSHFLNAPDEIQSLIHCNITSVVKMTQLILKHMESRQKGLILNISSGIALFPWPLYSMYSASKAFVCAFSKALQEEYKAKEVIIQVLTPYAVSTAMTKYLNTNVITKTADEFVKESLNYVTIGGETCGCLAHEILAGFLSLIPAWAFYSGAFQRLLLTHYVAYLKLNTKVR
Description: Inhibition of human recombinant 17-beta-HSD3 expressed in human HeLa cells using androstenedione as substrate preincubated for 30 mins prior substrate addition measured after 120 mins by spectrophotometry

In test [2] the target is T2, Androgen receptor (Homo sapiens) (UniProt P10275).
T2 sequence (whole entry): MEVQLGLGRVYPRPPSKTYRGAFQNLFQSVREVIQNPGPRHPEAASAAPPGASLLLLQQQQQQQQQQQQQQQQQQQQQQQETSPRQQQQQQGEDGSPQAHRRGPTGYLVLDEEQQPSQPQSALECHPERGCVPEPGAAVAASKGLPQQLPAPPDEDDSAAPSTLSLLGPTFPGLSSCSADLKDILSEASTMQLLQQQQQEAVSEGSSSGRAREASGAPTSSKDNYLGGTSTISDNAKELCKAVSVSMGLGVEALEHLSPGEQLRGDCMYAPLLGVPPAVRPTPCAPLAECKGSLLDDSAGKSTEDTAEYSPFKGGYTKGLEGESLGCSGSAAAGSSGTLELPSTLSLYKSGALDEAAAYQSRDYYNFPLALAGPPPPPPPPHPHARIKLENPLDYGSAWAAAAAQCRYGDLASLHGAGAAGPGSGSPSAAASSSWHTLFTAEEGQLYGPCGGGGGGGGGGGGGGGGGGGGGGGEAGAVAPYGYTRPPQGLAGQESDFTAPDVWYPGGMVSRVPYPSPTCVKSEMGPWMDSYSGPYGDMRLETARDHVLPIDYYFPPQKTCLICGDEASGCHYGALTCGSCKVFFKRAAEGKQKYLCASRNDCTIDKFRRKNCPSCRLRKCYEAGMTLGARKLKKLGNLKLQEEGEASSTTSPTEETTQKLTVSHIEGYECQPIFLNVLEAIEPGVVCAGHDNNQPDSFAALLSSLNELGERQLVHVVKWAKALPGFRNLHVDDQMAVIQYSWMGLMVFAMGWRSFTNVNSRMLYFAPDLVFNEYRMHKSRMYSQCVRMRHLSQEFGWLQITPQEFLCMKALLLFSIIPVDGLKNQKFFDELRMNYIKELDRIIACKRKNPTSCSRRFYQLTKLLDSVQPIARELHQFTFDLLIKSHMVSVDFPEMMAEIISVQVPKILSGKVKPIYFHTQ
Briefly: Antagonist activity at human androgen receptor expressed in human HeLa cells assessed as inhibition of DHT-induced response after 40 hrs by luciferase/beta-galactosidase-based reporter gene assay. Type of test: functional, cell-based.

Test [3] has as its target T3, Estrogen receptor (Homo sapiens) (UniProt P03372).
T3 sequence (whole entry): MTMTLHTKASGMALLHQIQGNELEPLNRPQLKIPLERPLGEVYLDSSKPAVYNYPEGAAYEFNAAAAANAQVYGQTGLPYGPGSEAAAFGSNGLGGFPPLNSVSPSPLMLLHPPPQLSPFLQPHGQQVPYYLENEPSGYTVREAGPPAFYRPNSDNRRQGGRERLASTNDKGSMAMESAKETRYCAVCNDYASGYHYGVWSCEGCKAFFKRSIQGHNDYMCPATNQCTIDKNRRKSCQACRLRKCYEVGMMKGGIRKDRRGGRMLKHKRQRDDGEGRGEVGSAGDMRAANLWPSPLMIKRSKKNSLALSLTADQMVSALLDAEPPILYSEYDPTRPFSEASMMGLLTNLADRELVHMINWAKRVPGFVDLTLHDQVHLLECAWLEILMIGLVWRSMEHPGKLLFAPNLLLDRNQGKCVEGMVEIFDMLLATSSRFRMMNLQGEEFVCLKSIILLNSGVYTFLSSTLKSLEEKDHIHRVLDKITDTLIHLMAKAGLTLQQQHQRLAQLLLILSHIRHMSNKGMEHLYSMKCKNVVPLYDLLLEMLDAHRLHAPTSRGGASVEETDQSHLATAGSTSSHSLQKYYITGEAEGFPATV
Briefly: Agonist activity at human Estrogen receptor ERalpha expressed in human HeLa cells assessed as DHT-induced response after 40 hrs by luciferase/beta-galactosidase-based reporter gene assay. Type of test: functional, cell-based.

Test [4] has as its target T4, Glucocorticoid receptor (Homo sapiens) (UniProt P04150).
T4 sequence (whole entry): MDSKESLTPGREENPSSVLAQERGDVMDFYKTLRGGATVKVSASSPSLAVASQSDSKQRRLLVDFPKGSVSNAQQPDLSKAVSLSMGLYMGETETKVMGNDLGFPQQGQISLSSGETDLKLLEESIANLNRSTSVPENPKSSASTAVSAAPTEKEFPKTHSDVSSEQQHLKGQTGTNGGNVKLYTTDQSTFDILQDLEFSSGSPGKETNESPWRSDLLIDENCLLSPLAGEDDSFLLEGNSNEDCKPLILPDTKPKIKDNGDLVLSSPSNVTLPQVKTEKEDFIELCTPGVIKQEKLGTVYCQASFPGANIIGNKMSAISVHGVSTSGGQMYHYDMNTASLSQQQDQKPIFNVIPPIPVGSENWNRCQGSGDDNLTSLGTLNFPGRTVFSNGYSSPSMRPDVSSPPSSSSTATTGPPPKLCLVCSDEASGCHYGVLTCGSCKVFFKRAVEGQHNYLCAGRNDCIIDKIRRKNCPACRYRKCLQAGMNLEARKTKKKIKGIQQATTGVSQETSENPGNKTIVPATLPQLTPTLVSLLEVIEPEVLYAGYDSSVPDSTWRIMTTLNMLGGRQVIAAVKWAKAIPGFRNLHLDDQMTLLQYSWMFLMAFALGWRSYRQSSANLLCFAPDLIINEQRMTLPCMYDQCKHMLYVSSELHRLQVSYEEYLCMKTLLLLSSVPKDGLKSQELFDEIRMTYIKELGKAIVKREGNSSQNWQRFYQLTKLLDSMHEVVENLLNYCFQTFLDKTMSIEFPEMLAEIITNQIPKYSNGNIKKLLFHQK
Nature of the test: Agonist activity at human Glucocorticoid receptor expressed in human HeLa cells assessed as DHT-induced response after 40 hrs by luciferase/beta-galactosidase-based reporter gene assay. It counts as functional, cell-based.

Test [5] deals with T3, Estrogen receptor (Homo sapiens). Nature of the test: Antagonist activity at human ERalpha receptor expressed in human HeLa cells assessed as inhibition of DHT-induced response after 40 hrs by luciferase/beta-galactosidase-based reporter gene assay. Type of test: functional, cell-based.
The target of test [6] is T5, 17-beta-hydroxysteroid dehydrogenase type 2 (Homo sapiens) (UniProt P37059).
T5 sequence (whole entry): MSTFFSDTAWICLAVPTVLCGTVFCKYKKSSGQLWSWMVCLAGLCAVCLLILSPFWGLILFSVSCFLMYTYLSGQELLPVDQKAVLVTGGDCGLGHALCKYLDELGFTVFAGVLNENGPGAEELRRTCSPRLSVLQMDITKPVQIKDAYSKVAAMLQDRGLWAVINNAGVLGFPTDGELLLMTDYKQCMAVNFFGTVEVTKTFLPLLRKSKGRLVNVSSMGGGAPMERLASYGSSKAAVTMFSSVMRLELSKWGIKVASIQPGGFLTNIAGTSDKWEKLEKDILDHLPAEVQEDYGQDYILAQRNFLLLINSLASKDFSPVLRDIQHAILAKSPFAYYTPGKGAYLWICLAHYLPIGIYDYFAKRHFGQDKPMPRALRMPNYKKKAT
Briefly: Inhibition of human recombinant 17-beta-HSD2 expressed in human HeLa cells using estradiol as substrate preincubated for 30 mins prior substrate addition measured after 120 mins by spectrophotometry. It counts as cell-based.

In test [7] the target is T4, Glucocorticoid receptor (Homo sapiens). Briefly: Antagonist activity at human GR receptor expressed in human HeLa cells assessed as inhibition of DHT-induced response after 40 hrs by luciferase/beta-galactosidase-based reporter gene assay. It counts as functional, cell-based.
For test [8], the target named is T2, Androgen receptor (Homo sapiens). Briefly: Agonist activity at human androgen receptor expressed in human HeLa cells assessed as DHT-induced response after 40 hrs by luciferase/beta-galactosidase-based reporter gene assay. Type of test: functional, cell-based.
Test [9] has as its target T6, 17-beta-hydroxysteroid dehydrogenase type 1 (Homo sapiens) (UniProt P14061).
T6 sequence (whole entry): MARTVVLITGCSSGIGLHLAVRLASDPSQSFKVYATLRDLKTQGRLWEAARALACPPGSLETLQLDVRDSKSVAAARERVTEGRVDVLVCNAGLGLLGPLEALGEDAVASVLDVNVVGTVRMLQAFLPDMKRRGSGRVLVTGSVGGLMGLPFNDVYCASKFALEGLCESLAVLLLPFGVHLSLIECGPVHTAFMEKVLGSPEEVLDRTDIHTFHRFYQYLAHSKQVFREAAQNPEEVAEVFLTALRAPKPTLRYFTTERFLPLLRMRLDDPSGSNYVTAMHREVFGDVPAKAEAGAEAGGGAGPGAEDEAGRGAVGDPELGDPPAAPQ
Briefly: Inhibition of human recombinant 17-beta-HSD1 expressed in human HeLa cells using estrone as substrate preincubated for 30 mins prior substrate addition measured after 120 mins by spectrophotometry. Type of test: cell-based.

In test [1], `C=CCN1C(=O)/C(=C/c2ccc(O)c(Br)c2)SC1=S` yielded an IC50 of 120 nM. Besides, the result in [2], in test [3], in test [4], in [5], in test [7] and in test [8] was inactive. The inhibition entry in test [6] and in test [9] was “inactive” in each case.

As to `CN1C(=O)/C(=C/c2ccc(O)c(Br)c2)SC1=S`, the concentration for half-maximal inhibition (IC50) in test [1] was 890 nM. Also, the result in test [2], in test [3], in test [4], in test [5], in [7] and in test [8] was inactive. Further, the inhibition entry in test [6] and in [9] was “inactive” throughout.

Turning to `COc1ccc(N2C(=O)/C(=C/c3ccc(O)c(C)c3)OC2=S)cc1`, in [1], the IC50 is 20 nM. Also, the result in test [2], in test [3], in test [4], in test [5], in test [7] and in test [8] was inactive. The inhibition entry in test [6] and in [9] was “inactive” each time.

Compound `CNC(=O)c1ccc(N2C(=O)O/C(=C\c3ccc(O)c(Br)c3)C2=O)cc1` showed an IC50 in test [1] of 56 nM. Moreover, the outcome in test [2], in [3], in [4], in test [5], in [7] and in test [8] was inactive. Moreover, the inhibition result in [6] and in [9] was “inactive” in each case.

In test [1], `C#CCN1C(=O)/C(=C/c2ccc(O)c(Br)c2)SC1=S` had an IC50 of 300 nM. Besides, the outcome in test [2], in test [3], in [4], in test [5], in [7] and in test [8] was inactive. Besides, the inhibition entry in test [6] and in test [9] was “inactive” throughout.

As to `COc1ccc(N2C(=O)/C(=C/c3cc(F)c(O)c(F)c3)OC2=S)cc1`, inhibition in test [1] was half-maximal at 5 nM (IC50). Also, the result in [2], in test [3], in test [4], in [5], in test [7] and in test [8] was inactive. Moreover, the inhibition result in test [6] and in test [9] was “inactive” throughout.

The compound `COCCN1C(=O)/C(=C/c2ccc(O)c(Br)c2)SC1=S` displayed an IC50 in [1] of 190 nM. Further, the result in test [2], in test [3], in test [4], in [5], in test [7] and in test [8] was inactive. Also, the inhibition result in test [6] and in test [9] was “inactive” throughout.

For `O=C1/C(=C/c2ccc(O)c(Br)c2)OC(=S)N1c1ccccc1`, in test [1], the IC50 turned out to be 6 nM. Moreover, the result in test [2], in test [3], in test [4], in test [5], in test [7] and in test [8] was inactive. In addition, the inhibition entry in test [6] and in test [9] was “inactive” in each case.

`COc1ccc(CN2C(=O)/C(=C/c3ccc(O)c(Br)c3)SC2=S)cc1` yielded a concentration for half-maximal inhibition (IC50) in test [1] of 90 nM. For the same compound, the outcome in [2], in [3], in [4], in test [5], in test [7] and in test [8] was inactive. Moreover, the inhibition entry in test [6] and in test [9] was “inactive” each time.
